This is an account of results in PubChem BioAssay AID2179 (Vanderbilt High Throughput Screening Facility, 2009).

SMILES strings stand for the structures. Active and inactive are the calls of the source. No rule for the calls is given here.

The target of this experiment is Metabotropic glutamate receptor 4 (Rattus norvegicus) (UniProt P31423). Nature of the experiment: PubChem AID 2179. The settings on record: HEK/GIRK rat mGluR4, thallium flux, glutamate CRC fold-shift.
Chain of Metabotropic glutamate receptor 4 (Rattus norvegicus) (P31423 whole entry, looked up): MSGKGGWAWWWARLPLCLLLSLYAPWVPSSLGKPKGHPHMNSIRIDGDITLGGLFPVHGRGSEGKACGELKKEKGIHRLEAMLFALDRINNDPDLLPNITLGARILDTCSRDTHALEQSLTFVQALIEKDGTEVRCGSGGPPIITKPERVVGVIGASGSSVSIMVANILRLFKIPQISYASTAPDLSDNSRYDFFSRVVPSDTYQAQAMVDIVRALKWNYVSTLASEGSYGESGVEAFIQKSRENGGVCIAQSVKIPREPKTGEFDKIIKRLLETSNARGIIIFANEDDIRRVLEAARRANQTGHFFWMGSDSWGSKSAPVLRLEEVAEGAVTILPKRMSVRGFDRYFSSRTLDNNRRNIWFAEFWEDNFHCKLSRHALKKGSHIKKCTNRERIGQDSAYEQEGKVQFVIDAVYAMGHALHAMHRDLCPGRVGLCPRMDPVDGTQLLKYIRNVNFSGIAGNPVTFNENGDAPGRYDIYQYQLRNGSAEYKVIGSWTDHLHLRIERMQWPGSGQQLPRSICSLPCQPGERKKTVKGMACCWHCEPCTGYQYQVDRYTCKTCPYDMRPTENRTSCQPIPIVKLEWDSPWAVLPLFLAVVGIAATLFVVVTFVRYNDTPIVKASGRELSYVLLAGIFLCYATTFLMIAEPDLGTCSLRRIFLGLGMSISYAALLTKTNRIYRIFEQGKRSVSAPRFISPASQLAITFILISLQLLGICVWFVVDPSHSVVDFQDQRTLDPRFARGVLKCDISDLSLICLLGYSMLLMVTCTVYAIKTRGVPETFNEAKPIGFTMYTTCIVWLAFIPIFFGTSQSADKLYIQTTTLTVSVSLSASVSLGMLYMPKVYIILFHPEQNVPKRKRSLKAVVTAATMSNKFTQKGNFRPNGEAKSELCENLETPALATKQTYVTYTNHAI
As to `COc1ccc(NC(=O)c2ccccn2)cc1Cl`, the glutamate EC50 in presence of 30 uM compound (lower = stronger potentiation) was 1180 nM.
With `O=C(Nc1ccc(Cl)c(C(F)(F)F)c1)c1ccccn1` the figure was 5820 nM (inactive).
As to `COc1cc(NC(=O)c2ccccn2)ccc1F`, the glutamate EC50 in presence of 30 uM compound (lower = stronger potentiation) is 409 nM.
Take `O=C(Nc1ccc(F)c(C(F)(F)F)c1)c1ccccn1`: the glutamate EC50 in presence of 30 uM compound (lower = stronger potentiation) was 4010 nM (inactive).
The same measure for `COc1cc(NC(=O)c2ccccn2)ccc1C`: 330 nM.
The same measure for `COc1cc(NC(=O)c2ccccn2)ccc1Cl`: 307 nM; for `O=C(Nc1cccc(Cl)c1)c1ccccn1`: 368 nM.
